Measurements reported in patent publication US20050143362A1 (priority 2003, published 2005).

How the values were obtained:
[1] = biological target: T1, sex hormone binding globulin (SHBG) (Homo sapiens, UniProt P04278); conditions: Pugeat et al. 1981; cited from earlier work
T1 sequence (P04278 30-402): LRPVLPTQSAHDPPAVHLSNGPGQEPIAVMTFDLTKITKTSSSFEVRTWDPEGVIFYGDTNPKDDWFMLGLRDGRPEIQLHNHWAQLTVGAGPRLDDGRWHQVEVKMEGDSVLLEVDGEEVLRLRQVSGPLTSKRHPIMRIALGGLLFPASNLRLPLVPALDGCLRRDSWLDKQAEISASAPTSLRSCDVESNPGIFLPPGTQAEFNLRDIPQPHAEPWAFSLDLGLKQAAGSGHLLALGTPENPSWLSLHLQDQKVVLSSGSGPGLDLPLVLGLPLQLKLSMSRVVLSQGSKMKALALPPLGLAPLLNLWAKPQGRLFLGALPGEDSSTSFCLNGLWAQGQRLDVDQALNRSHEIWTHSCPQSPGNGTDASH

[2] = biological target: T2, progesterone receptors (Homo sapiens, UniProt P06401); conditions: Zurlo et al. 1990; cited from earlier work
T2 sequence (P06401 1-933): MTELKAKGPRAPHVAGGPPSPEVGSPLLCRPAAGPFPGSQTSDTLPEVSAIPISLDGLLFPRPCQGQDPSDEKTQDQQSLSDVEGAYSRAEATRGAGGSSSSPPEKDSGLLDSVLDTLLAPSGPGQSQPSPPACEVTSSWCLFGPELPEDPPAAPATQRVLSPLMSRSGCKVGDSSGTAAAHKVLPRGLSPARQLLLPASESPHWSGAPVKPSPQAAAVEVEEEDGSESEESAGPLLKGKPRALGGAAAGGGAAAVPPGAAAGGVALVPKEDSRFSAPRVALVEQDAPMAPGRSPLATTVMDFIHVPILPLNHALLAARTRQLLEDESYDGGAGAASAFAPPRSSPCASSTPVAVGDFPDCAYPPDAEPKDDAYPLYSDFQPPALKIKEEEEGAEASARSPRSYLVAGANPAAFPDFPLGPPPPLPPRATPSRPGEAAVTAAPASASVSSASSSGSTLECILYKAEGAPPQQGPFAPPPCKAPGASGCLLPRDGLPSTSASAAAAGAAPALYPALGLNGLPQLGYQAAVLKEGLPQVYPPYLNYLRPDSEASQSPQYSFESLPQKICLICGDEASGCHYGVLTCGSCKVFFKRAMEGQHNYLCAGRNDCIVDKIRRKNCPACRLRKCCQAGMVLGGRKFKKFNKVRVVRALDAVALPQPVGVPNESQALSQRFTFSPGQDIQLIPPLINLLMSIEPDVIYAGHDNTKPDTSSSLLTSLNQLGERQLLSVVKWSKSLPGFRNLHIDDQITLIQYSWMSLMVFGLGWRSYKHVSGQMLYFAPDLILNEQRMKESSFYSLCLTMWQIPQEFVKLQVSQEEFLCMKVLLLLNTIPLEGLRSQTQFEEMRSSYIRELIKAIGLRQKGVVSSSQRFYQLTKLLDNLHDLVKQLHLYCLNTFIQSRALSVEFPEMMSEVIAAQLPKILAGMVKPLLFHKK

[3] = test system: serum gonadotropins; conditions: Gelfand et al. 1976; cited from earlier work
[4] = cited from earlier work
[5] = test system: hypogonadism in the adult male; test: Illustrative examples: danazol capsules given to hypogonadal adult men; format: in vivo; conditions: after one month
Source text: A person reports a lethargic and depressed mood. Blood tests show a hypogonadism in which total testosterone is borderline normal range but SHBG levels are higher than normal. Free testosterone levels are abnormally low and the patient is diagnosed as hypogonadal.
A person reports a general physical weakening and decreased libido. Blood tests show a high total testosterone level but SHBG levels are also in the very high range. Free testosterone levels are abnormally low and the patient is diagnosed as hypogonadal.

[6] = Example 1: person, one 25 milligram capsule three times daily
[7] = Example 2: person, one 25 milligram capsule twice a day

C#C[C@]1(O)CC[C@H]2[C@@H]3CCC4=Cc5oncc5C[C@]4(C)[C@H]3CC[C@@]21C [danazol, 17α-pregn-4-en-20-yno[2,3-d]isoxazol-17-ol]
displacement of testosterone from SHBG [1]: competitive displacer of testosterone | binding to progesterone receptors [2]: competitive binding | serum gonadotropins [3]: dose-dependent reduction | androgenic potential ([4]; Gelfand et al. 1976): markedly attenuated | myogenic (anabolic) activity ([4]; Gelfand et al. 1976): mildly myogenic | androgen-like activity ([4]; Potts et al. 1980): weak | anabolic response ([4]; whole males, low dosages, Dmowski et al. 1971): increased and stable, long term anabolic response | SHBG level (blood test) [5, 6]: remained stable | free testosterone (blood test) [5, 6]: increased | total testosterone level (blood test) [5, 6]: remained stable | vigor and mood reported by patient [5, 6]: greater vigor and an improved mood | SHBG level (blood test) [5, 7]: lower levels | free testosterone (blood test) [5, 7]: new higher level | libido reported by patient [5, 7]: increased libido
